Measured values from ChEMBL document CHEMBL4834440, “2,2,2-trifluoro-1-(1,4,5,6-tetrahydropyridin-3-yl)ethanone derivative as efflux pump inhibitor in Mycobacterium tuberculosis” (Bioorg Med Chem Lett, 2021).
≈ marks a conversion by molar mass, not a printed value.

Experiments:
[1] = test system: Mycobacterium tuberculosis; test: Antimycobacterial activity against Mycobacterium tuberculosis H37Rv assessed as inhibition of bacterial growth measured by Resazurin microtitre assay; format: functional
[2] = test system: Mycobacterium tuberculosis; test: Antimycobacterial activity against Mycobacterium tuberculosis H37Rv under starvation condition assessed as inhibition of bacterial growth at 25 ug/ml measured after 3 days relative to control; format: functional; conditions: 72 h, time 3 day
[3] = Cytotoxicity against African green monkey Vero cells assessed as cell viability at 100 ug/ml measured after 24 hrs relative to control; format: cell-based; conditions: chlorocebus sabaeus, at 100 µg/mL, read-out: Activity
[4] = test system: Mycobacterium tuberculosis; test: Antimycobacterial activity against Mycobacterium tuberculosis H37Rv under starvation condition assessed as inhibition of bacterial growth at 6.25 ug/ml measured after 9 days relative to control; format: functional; conditions: 216 h, time 9 day
[5] = test system: Mycobacterium tuberculosis; test: Antimycobacterial activity against Mycobacterium tuberculosis H37Rv under starvation condition assessed as inhibition of bacterial growth at 100 ug/ml measured after 1 day relative to control; format: functional; conditions: 24 h
[6] = test system: Mycobacterium tuberculosis; test: Antimycobacterial activity against Mycobacterium tuberculosis H37Rv under starvation condition assessed as inhibition of bacterial growth at 6.25 ug/ml measured after 1 day relative to control; format: functional; conditions: 24 h
[7] = Selectivity index, ratio of IC50 for African green monkey Vero cells to MIC for antimycobacterial activity against Mycobacterium tuberculosis FURG-2; format: toxicity; conditions: read-out: Selectivity Index
Vero = test: Cytotoxicity against African green monkey Vero cells assessed as cell viability measured after 24 hrs; format: cell-based; conditions: Chlorocebus sabaeus
[8] = test system: Mycobacterium tuberculosis; test: Antimycobacterial activity against Mycobacterium tuberculosis H37Rv under starvation condition assessed as inhibition of bacterial growth at 100 ug/ml measured after 9 days relative to control; format: functional; conditions: 216 h, time 9 day
[9] = test system: Mycobacterium tuberculosis; test: Antimycobacterial activity against Mycobacterium tuberculosis H37Rv under starvation condition assessed as inhibition of bacterial growth at 100 ug/ml measured after 3 days relative to control; format: functional; conditions: 72 h, time 3 day
[10] = test system: Mycobacterium tuberculosis; test: Antimycobacterial activity against Mycobacterium tuberculosis H37Rv under starvation condition assessed as inhibition of bacterial growth at 25 ug/ml measured after 1 day relative to control; format: functional; conditions: 24 h
[11] = test system: Mycobacterium tuberculosis; test: Antimycobacterial activity against Mycobacterium tuberculosis H37Rv assessed as inhibition of bacterial growth at 100 ug/ml measured after 24 hrs relative to control; format: functional
[12] = test system: Mycobacterium tuberculosis; test: Antimycobacterial activity against Mycobacterium tuberculosis H37Rv assessed as inhibition of bacterial growth at 100 ug/ml measured after 3 days relative to control; format: functional; conditions: 72 h, time 3 day
[13] = test system: Mycobacterium tuberculosis; test: Antimycobacterial activity against Mycobacterium tuberculosis H37Rv under starvation condition assessed as inhibition of bacterial growth at 6.25 ug/ml measured after 3 days relative to control; format: functional; conditions: 72 h, time 3 day
[14] = test system: Mycobacterium tuberculosis; test: Antimycobacterial activity against Mycobacterium tuberculosis H37Rv under starvation condition assessed as inhibition of bacterial growth at 25 ug/ml measured after 9 days relative to control; format: functional; conditions: 216 h, time 9 day
[15] = test system: Mycobacterium tuberculosis; test: Antimycobacterial activity against Mycobacterium tuberculosis H37Rv assessed as inhibition of bacterial growth at 100 ug/ml measured after 9 days relative to control; format: functional; conditions: 216 h, time 9 day

SMILES	MIC [1] [mg/L]	inhibition at 25 µg/mL [2] [%]	viability at 24 h, 100 ug/ml [3] [%]	inhibition at 6.25 µg/mL [4] [%]	inhibition at 100 µg/mL [5] [%]	inhibition at 6.25 µg/mL [6] [%]	selectivity ratio [7]	IC50 (Vero) [mg/L]	inhibition at 100 µg/mL [8] [%]	inhibition at 100 µg/mL [9] [%]	inhibition at 25 µg/mL [10] [%]	inhibition at 100 µg/mL [11] [%]	inhibition at 100 µg/mL [12] [%]	inhibition at 6.25 µg/mL [13] [%]	inhibition at 25 µg/mL [14] [%]	inhibition at 100 µg/mL [15] [%]
CO[C@H]1/C=C/O[C@@]2(C)Oc3c(C)c(O)c4c(O)c(c(/C=N/N5CCN(C)CC5)c(O)c4c3C2=O)NC(=O)/C(C)=C\C=C\[C@H](C)[C@H](O)[C@@H](C)[C@@H](O)[C@@H](C)[C@H](OC(C)=O)[C@@H]1C [RIFAMPIN]	256 (≈ 311 µM)															
O=C(C1=CN(CCc2ccccc2)C(NCCc2ccccc2)CC1)C(F)(F)F (configuration not stated)	25 (≈ 62.1 µM)	99.5	80	100	97.5	0	> 10	140 (≈ 347 µM)	100	99.9	0	89.5	99.9	0	100	100
